Data published in patent US5449667A, “Amidothiophosphate derivative and insecticide, nematocide and acaricide containing the same as active ingredient” (priority 1993, dated 1995).

Assays:
[1] = system: larvae of Spodoptera litura; test: Insecticidal activity against larvae of Spodoptera litura; assay type: in vivo; settings: 144 h, 4-instar larvae, artificial bait, after six days
Description: Biological Test 1 Insecticidal Activity Against Larvae of Spodoptera litura
Emulsifiable concentrates were prepared for each of the present compounds according to the formulation example 1. Thirteen grams of artificial bait for Spodoptera litura were placed in a polyethylene cup (diameter: 11 cm) and impregnated with 2 ml of the emulsifiable concentrate diluted with water (500 ppm). Ten 4-instar larvae of Spodoptera litura were put in the polyethylene cup. After six days, the mortality of the larvae was examined.

Blattella germanica = test: Insecticidal activity against Blattella germanica; assay type: in vivo; settings: 24 h, 0.7 ml of 500 ppm on filter paper, ten male cockroaches, after one day
Description: Biological Test 3 Insecticidal Avtivity Against Blattella germanica
(§1) Filter paper of 5.5 cm in diameter was laid in the bottom of a polyethylene cup (diameter: 5.5 cm). After 0.7 ml of a 500 ppm aqueous solution obtained by diluting each emulsifiable concentrate prepared from each of the present compounds according to the formulation example 1 was dropped on the filter paper and approximately 30 mg of sucrose was uniformly scattered and put on the filter paper as bait, ten male cockroaches (Blattella germanica) were left in the cup with a cover. After one day, the mortality was examined for the cockroaches.

Musca domestica = test: Insecticidal activity against Musca domestica; assay type: in vivo; settings: 24 h, 0.7 ml of 500 ppm on filter paper, ten female house flies, after one day
Description: Biological Test 4 Insecticidal Activity Against Musca domestica
as §1, with “scattered,” for “scattered”, “female house flies (Musca domestica)” for “male cockroaches (Blattella germanica)”, “flies.” for “cockroaches.”

[2] = system: larvae of Diabrotica undecimpunctata; test: Insecticidal activity against larvae of Diabrotica undecimpunctata; assay type: in vivo; settings: 1 ml of 50 ppm on filter paper, approximately thirty eggs, after eight days
Description: Biological Text 5 Insecticidal Activity Against Larvae of Diabrotica undecimpunctata
Filter paper of 5.5 cm in diameter was laid in the bottom of a polyethylene cup (diameter: 5.5 cm). After 1 ml of a 50 ppm aqueous solution obtained by diluting each of the emulsifiable concentrate prepared from each of the present compounds according to the formulation example 1 was dropped on the filter paper and one sprouting corn crop was placed as bait on the paper, approximately thirty eggs of Diabrotica undecimpunctata were left on the filter paper. After eight days, the rate of hatched larvae was examined. The activity were evaluated according to the following criteria:
B: Mortality not less than 90% but less than 100%
C: Mortality less than 90%

root-knot nematodes = test: Activity against root-knot nematodes; assay type: in vivo; parameters: key: -: substantially no root knots; +: several to ten odds root knots; ++: larger number of root knots (heavier damage than +); settings: 25 ppm active ingredient in soil, tomato root, after four weeks
Description: Biological Test 6 Activity Against Root-knot Nematodes
One ml of a 500 ppm aqueous solution of each of the present compounds obtained by diluting each emulsifiable concentrate prepared from each of the present compounds according to the formulation example 1 was mixed with 19 g of soil contaminated with root-knot nematodes (concentration of active ingredient in soil: 25 ppm). After the soil was kept at 27° C. for 24 hours, the root of a tomato plant (approximately two weeks after sprouting) in a cup was covered with the soil and some water was given to the plant. After four weeks, damage to the root of the tomato plant was evaluated according to the following criteria:
-: substantially no root knots
+: several to ten odds root knots
++: larger number of root knots (heavier damage than +)

[3] = system: larvae of Culex pipiens pallens; test: Insecticidal activity against larvae of Culex pipiens pallens; assay type: in vivo; settings: 3.5 ppm active ingredient in water, twenty last-instar larvae, after one day
Description: Biological Test 7 Insecticidal Activity Against Larvae of Culex pipiens pallens
Each of emulsifiable concentrates prepared from each of the present compounds according to the formulation example 1 was diluted with water, and 0.7 ml of the diluted solution was added to 100 ml of ion-exchanged water (concentration of active ingredient: 3.5 ppm). Twenty last-instar larvae of Culex pipiens pallens were left in the water. After one day, the activity was evaluated according to the following criteria:
A: Mortality not less than 90%
B: Mortality not less than 10% but less than 90%
C: Mortality less than 10%

Tetranychus cinnabarinus = test: Activity against Tetranychus cinnabarinus; assay type: in vivo; parameters: key: -: substantially no damage; +: little damage; ++: heavy damage; settings: 500 ppm, 15 ml spray plus 2 ml soil injection, kidney bean, after eight days
Description: Biological Test 8 Activity Against Tetranychus cinnabarinus
Ten male mites (Tetranychus cinnabarinus) per leaf were placed on a pot-planted kidney bean (Phasseolus vulgaris: seven days after sowing) and kept in a thermostatic chamber. After six days, 15 ml of a 500 ppm aqueous solution obtained by diluting each emulsifiable concentrate of each of the present compounds according to the formulation example 1 was sprayed in a pot simultaneously with injection of 2 ml of the solution into soil. After eight days, damage to the plant by Tetranychus cinnabarinus was evaluated according to the following criteria:
-: substantially no damage

[4] = Acute toxicity in oral application to mice; settings: mouse, in vivo, 30 mg/kg, ICR male mice, after seven days
Description: Biological Test 9 Acute Toxicity in Oral Application to Mice
Each of the present compound was diluted with corn oil to a predetermined concentration. After subjecting the mice to a twenty-hour fasting, 0.1 ml of the diluted solution per 10 g weight was forcibly applied into the stomach of each ICR male 6-week old mouse (weight: 24 to 31 g). The mice were given food and water four hours after the application and thereafter regularly fed and watered, and kept in a cage. After seven days, the mortality was examined for the mice (4 mice/group).

SMILES	mortality at 500 ppm [1]	mortality at 500 ppm (Blattella germanica)	mortality at 500 ppm (Musca domestica)	Activity [2]	Activity (root-knot nematodes)	Activity [3]	Activity (Tetranychus cinnabarinus)	mortality at 168 h [4]
CCOP(=O)(SC(C)CC)N(CC#N)C(=O)OC (stereo not shown) [Compound 9, O-ethyl S-sec-butyl N-cyanomethyl N-methoxycarbonyl phosphoroamidothiolate]	100%	100%	100%	A (Mortality 100%)	-	A (Mortality not less than 90%)	-	0%
CCOP(=O)(SC(C)CC)N(CCC#N)C(=O)SC (stereo not shown) [Compound 13]	100%	100%	100%	A (Mortality 100%)	-	A (Mortality not less than 90%)	-	0%
